{"source": "patent US20260103465A1", "about": "“GLYCOGEN SYNTHASE KINASE 3 INHIBITORS AND USES THEREOF” (The Broad Institute, Inc., priority 2023, published 2026)", "key": {"[1]": {"molecular_target": "T1, GSK3a (GST-full length GSK3a) (Homo sapiens, UniProt P49840)", "T1 construct": "GST-full length GSK3a [SignalChem G08-10G]; purchased SignalChem G08-10G", "T1 sequence (P49840 whole entry)": "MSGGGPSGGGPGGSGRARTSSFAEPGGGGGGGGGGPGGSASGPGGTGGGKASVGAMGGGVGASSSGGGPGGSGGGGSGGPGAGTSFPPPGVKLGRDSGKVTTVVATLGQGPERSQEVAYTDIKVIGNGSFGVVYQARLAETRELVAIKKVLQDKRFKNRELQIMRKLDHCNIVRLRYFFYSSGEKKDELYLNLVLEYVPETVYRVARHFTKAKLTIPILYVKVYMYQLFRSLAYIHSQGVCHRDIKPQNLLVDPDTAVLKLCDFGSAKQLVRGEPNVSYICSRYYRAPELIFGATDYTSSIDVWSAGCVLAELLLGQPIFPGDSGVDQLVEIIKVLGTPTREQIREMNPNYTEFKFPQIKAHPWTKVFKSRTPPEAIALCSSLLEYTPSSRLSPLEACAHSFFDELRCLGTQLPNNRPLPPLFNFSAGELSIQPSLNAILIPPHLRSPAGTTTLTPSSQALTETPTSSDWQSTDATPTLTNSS", "assay": "GSK3a TR-FRET kinase inhibition assay", "assay_type": "biochemical", "method_in_brief": "(§1)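 GST-tagged full-length human kinase (1 nM), pre-incubated 30 min with compound, then reacted 100 min at ambient temperature at pH 7.5 with 200 nM biotinylated phospho-S645 glycogen synthase 631–650 peptide and ATP at 2 μM–1 mM. After EDTA quench, Tb-pSer641 antibody/streptavidin-d2 TR-FRET 665/615 ratio fitted for IC50.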"}, "[2]": {"molecular_target": "T2, GSK3b (GST-full length GSK3b) (Homo sapiens, UniProt P49841)", "T2 construct": "GST-full length GSK3b: [SignalChem G08-9G]; purchased SignalChem G08-9G", "T2 sequence (P49841 whole entry)": "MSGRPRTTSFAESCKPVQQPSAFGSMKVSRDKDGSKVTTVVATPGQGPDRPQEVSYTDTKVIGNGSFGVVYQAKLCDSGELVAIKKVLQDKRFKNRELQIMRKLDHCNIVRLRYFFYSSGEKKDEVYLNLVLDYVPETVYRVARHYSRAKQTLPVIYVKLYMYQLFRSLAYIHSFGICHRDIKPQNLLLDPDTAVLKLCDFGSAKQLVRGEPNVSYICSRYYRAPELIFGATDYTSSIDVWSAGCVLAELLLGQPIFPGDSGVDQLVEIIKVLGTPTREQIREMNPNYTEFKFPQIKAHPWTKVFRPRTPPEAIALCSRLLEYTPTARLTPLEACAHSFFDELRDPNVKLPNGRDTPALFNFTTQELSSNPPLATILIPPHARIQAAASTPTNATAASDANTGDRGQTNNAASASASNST", "assay": "GSK3b TR-FRET kinase inhibition assay", "assay_type": "biochemical", "method_in_brief": "as §1"}, "[3]": {"assay": "Human liver microsomal stability", "assay_type": "in vitro ADME", "conditions": "human, liver microsomes", "method_in_brief": "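Compound incubated at 1 µM with human liver microsomes for 60 min at 37 °C, in duplicate. Percent remaining derived from compound level at 60 min relative to 0 min. Controls: microsomes with NADPH and no compound; compound with microsomes lacking NADPH.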"}, "MDR1": {"tested_on": "MDR1", "assay": "MDR1/MDCK permeability assay", "assay_type": "in vitro ADME", "conditions": "dog; for Papp A→B at 120 min, 5 µM: MDCK-MDR1, pH 7.4, A to B; for Papp B→A at 120 min, 5 µM: MDCK-MDR1, pH 7.4, B to A; for efflux ratio at 120 min, 5 µM: MDCK-MDR1, pH 7.4, Papp B-A/A-B, Mean, P. Ratio(B-A/A-B) Efflux Ratio", "method_in_brief": "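Confluent MDR1-MDCK monolayers (7–11 days old), compound dosed at 5 μM in HBSSg (≤1% DMSO) apically or basolaterally, pH 7.4 both sides, receiver with 1% BSA, N=2. Both sides sampled at 120 min and quantified by LC-MS/MS; Papp in each direction, efflux ratio B-A/A-B and recovery reported.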"}}, "note": "Like-named read-outs stand apart in the source and are kept apart here."}
{"smiles": "CCC1(c2ccccc2)C2=C(CC(C)(C)CC2=O)Nc2ncc(C(F)(F)F)cc21", "note": "(single isomer, unassigned) [Compound 133A]", "values": [{"measurement": "IC50", "setting": "[1]; 10 μM ATP, read-out: GSK3a 10 μM ATP Average IC50", "value": "≤ 0.1", "unit": "µM"}, {"measurement": "IC50", "setting": "[1]; 100 μM ATP, read-out: GSK3a 100 μM ATP Average IC50", "value": "0.1 to 1", "unit": "µM"}, {"measurement": "IC50", "setting": "[1]; 1 mM ATP, Table 3, read-out: GSK3a TR-FRET 1 mM ATP Average IC50", "value": "1 to 5", "unit": "µM"}, {"measurement": "IC50", "setting": "[2]; 10 μM ATP, read-out: GSK3b 10 μM ATP Average IC50", "value": "≤ 0.1", "unit": "µM"}, {"measurement": "IC50", "setting": "[2]; 100 μM ATP, read-out: GSK3b 100 μM ATP Average IC50", "value": "0.1 to 1", "unit": "µM"}, {"measurement": "IC50", "setting": "[2]; 1 mM ATP, Table 3, read-out: GSK3b TR-FRET 1 mM ATP Average IC50", "value": "1 to 5", "unit": "µM"}, {"measurement": "half-life at 1 µM", "setting": "[3]; Table 3, read-out: Microsome Stability (Human) (DMPK_BIIB), Mean, in vitro t1/2", "value": 78, "unit": "min"}, {"measurement": "half-life at 1 µM", "setting": "[3]; Table 4, read-out: Microsome Stability (Human) (DMPK_BIIB), Mean, in vitro t1/2", "value": 1.4, "unit": "min"}, {"measurement": "Papp A→B at 120 min, 5 µM", "setting": "MDR1; Table 3", "value": 14, "unit": "×10⁻⁶ cm/s"}, {"measurement": "Papp A→B at 120 min, 5 µM", "setting": "MDR1; Table 4", "value": 13, "unit": "×10⁻⁶ cm/s"}, {"measurement": "Papp B→A at 120 min, 5 µM", "setting": "MDR1; Table 3", "value": 8.2, "unit": "×10⁻⁶ cm/s"}, {"measurement": "Papp B→A at 120 min, 5 µM", "setting": "MDR1; Table 4", "value": 19, "unit": "×10⁻⁶ cm/s"}, {"measurement": "efflux ratio at 120 min, 5 µM", "setting": "MDR1; Table 3, read-out: MIDCK Permeability (MDR1-MDCK)", "value": 0.56}, {"measurement": "efflux ratio at 120 min, 5 µM", "setting": "MDR1; Table 4, read-out: MDCK Permeability (MDR1-MDCK)", "value": 1.5}]}
